Source: US20120165319A1, “INHIBITORS OF INTERLEUKIN-1 BETA CONVERTING ENZYME” (VERTEX PHARMACEUTICALS INCORPORATED, priority 1995, published 2012)
pIC50: −log10 of the molar value.

Each compound was assayed on IL-1β, human whole blood (assay: Whole blood assay for IL-1β production). Details: Homo sapiens, Table 17; read-out: Whole human blood IC50.
Assay type: cell-based
Procedure: The whole blood assay is a simple method for measuring the production of IL-1b (or other cytokines) and the activity of potential inhibitors. The complexity of this assay system, with its full complement of lymphoid and inflammatory cell types, spectrum of plasma proteins and red blood cells is an ideal in vitro representation of human in vivo physiologic conditions.
Pyrogen-free syringes (˜30 cc) Pyrogen-free sterile vacuum tubes containing lyophilized Na2EDTA (4.5 mg/10 ml tube) Human whole blood sample (˜30-50 cc) 1.5 ml eppendorf tubes Test compound stock solutions (˜25 mM in DMSO or other solvent) Endotoxin-free sodium chloride solution (0.9%) and HBSS Lipopolysaccharide (Sigma; Cat. # L-3012) stock solution at 1 mg/ml in HBSS
IL-1β ELISA Kit (R & D Systems; Cat # DLB50)
TNFα ELISA Kit (R & D Systems; Cat # DTA50)
Whole Blood Assay Experimental Procedure:
Set incubator or water bath at 30° C. Aliquot 0.25 ml of blood into 1.5 ml eppendorf tubes. Note: be sure to invert the whole blood sample tubes after every two aliquots. Differences in replicates may result if the cells sediment and are not uniformly suspended. Use of a positive displacement pipette will also minimize differences between replicate aliquots.
Prepare drug dilutions in sterile pyrogen-free saline by serial dilution. A dilution series which brackets the apparent Ki for a test compound determined in an ICE inhibition assay is generally used for the primary compound screen.
Add 25 μl test compound dilution or vehicle control and gently mix the sample. Then add 5.0 μl LPS solution (250 ng/ml stocked prepared fresh: 5.0 ng/ml final concentration LPS), and mix again. Incubate the tubes at 30° C. in a water bath for 16-18 hr with occasional mixing. Alternatively, the tubes can be placed in a rotator set at 4 rpm for the same incubation period. This assay should be set up in duplicate or triplicate with the following controls: negative control—no LPS; positive control—no test inhibitor; vehicle control—the highest concentration of DMSO or compound solvent used in the experiment. Additional saline is added to all control tubes to normalize volumes for both control and experimental whole blood test samples
After the incubation period, whole blood samples are centrifuged for 10 minutes at ˜2000 rpm in the microfuge, plasma is transferred to a fresh microfuge tube and centrifuged at 1000×g to pellet residual platelets if necessary. Plasma samples may be stored frozen at −70° C. prior to assay for cytokine levels by ELISA.
We have used R & D Systems (614 McKinley Place N.E. Minneapolis, Minn. 55413) Quantikine kits for measurement of IL-1β and TNF-α. The assays are performed according to the manufacturer's directions.
We have observed IL-1β levels of ˜1-5 ng/ml in positive controls among a range of individuals. A 1:200 dilution of plasma for all samples has been sufficient in our experiments for ELISA results to fall on the linear range of the ELISA standard curves. It may be necessary to optimize standard dilutions if you observe differences in the whole blood assay. Nerad, J. L. et al., J. Leukocyte Biol., 52, pp. 687-692 (1992).

| pIC50 | SMILES |
| --- | --- |
| 5.35 | CC(=O)N1C[C@H](NC(=O)c2cc(C)c(O)c(C)c2)C(=O)N(CC(=O)N[C@H]2CC(=O)OC2OCc2ccccc2)c2ccccc21 (mixture of isomers) [Compound 670, (3S)-2-Oxo-3-(3,5-dimethyl-4-hydroxybenzoyl)amino-5-acetyl-N-[(2RS,3S)-benzyloxy-5-oxo-tetrahydrofuran-3-yl]-2,3,4,5-tetrahydro-1H-1,5-benzodiazepine-1-acetamide] |
| 5.52 | COCC(=O)N1C[C@H](NC(=O)c2cc(Cl)c(O)c(Cl)c2)C(=O)N(CC(=O)N[C@H]2CC(=O)OC2OCc2ccccc2)c2ccccc21 (mixture of isomers) [Compound 688a, (3S)-2-Oxo-3-(3,5-dichloro-4-hydroxybenzoyl)amino-5-methoxyacetyl-N-[(2RS,3S)-benzyloxy-5-oxo-tetrahydrofuran-3-yl]-2,3,4,5-tetrahydro-1H-1,5-benzodiazepine-1-acetamide] |
| 6.21 | COc1cccc(OC)c1C(=O)C(=O)N[C@H]1CN(C(=O)CO)c2ccccc2N(CC(=O)N[C@H]2CC(=O)OC2OCc2ccccc2)C1=O (stereo partly drawn) [Compound 677, (3S)-2-Oxo-3-(1,6-dimethoxybenzoylformyl)amino-5-(2-hydroxy)acetyl-N-[(2RS,3S)-benzyloxy-5-oxo-tetrahydrofuran-3-yl]-2,3,4,5-tetrahydro-1H-1,5-benzodiazepine-1-acetamide] |
| 5.89 | COCC(=O)N1C[C@H](NC(=O)c2cc(C)c(O)c(C)c2)C(=O)N(CC(=O)N[C@H]2CC(=O)OC2OCc2ccccc2)c2ccccc21 (mixture of isomers) [Compound 688b, (3S)-2-Oxo-3-(3,5-dimethyl-4-hydroxybenzoyl)amino-5-methoxyacetyl-N-[(2RS,3S)-benzyloxy-5-oxo-tetrahydrofuran-3-yl]-2,3,4,5-tetrahydro-1H-1,5-benzodiazepine-1-acetamide] |
| 5.80 | Cc1cc(C(=O)N[C@H]2CN(C(=O)CO)c3ccccc3N(CC(=O)N[C@H]3CC(=O)OC3OCc3ccccc3)C2=O)cc(C)c1O (mixture of isomers) [Compound 690a, (3S)-2-Oxo-3-(3,5-dimethyl-4-hydroxybenzoyl)amino-5-hydroxyacetyl-N-[(2RS,3S)-benzyloxy-5-oxo-tetrahydrofuran-3-yl]-2,3,4,5-tetrahydro-1H-1,5-benzodiazepine-1-acetamide] |

| SMILES | pIC50 |
| --- | --- |
| CC(=O)OCC(=O)N1C[C@H](NC(=O)c2ccccc2)C(=O)N(CC(=O)N[C@H]2CC(=O)OC2OCc2ccccc2)c2ccccc21 (mixture of isomers) [Compound 682, (3S)-2-Oxo-3-benzoylamino-5-(2-acetoxy)acetyl-N-[(2RS,3S)-benzyloxy-5-oxo-tetrahydrofuran-3-yl]-2,3,4,5-tetrahydro-1H-1,5-benzodiazepine-1-acetamide] | 5.89 |

Same assay, conditions: Table 17; read-out: Whole human blood IC50

| pIC50 | SMILES |
| --- | --- |
| 5.66 | CN(C)c1cccc(C(=O)N[C@H]2CCC(=O)N3CCC[C@@H](C(=O)N[C@H]4CC(=O)OC4OCc4ccccc4)N3C2=O)c1 (mixture of isomers) [Compound 213g, [1S,9S (2RS,3S)]9-[(3-Dimethylaminobenzoyl)amino]-6,10-dioxo-1,2,3,4,7,8,9,10-octahydro-N-(2-Benzyloxy-5-oxotetrahydrofuran-3-yl)-6H-pyridazino[1,2-a][1,2]diazepine-1-carboxamide] |
| 6.15 | CCOC1OC(=O)C[C@@H]1NC(=O)[C@@H]1CCCN2C(=O)CC[C@H](NC(=O)c3nccc4ccccc34)C(=O)N12 (mixture of isomers) [Compound 550q, [1S,9S(2RS,3S)]N-(2-Ethoxy-5-oxotetrahydrofuran-3-yl)-6,10-dioxo-9-(isoquinolin-1-oylamino)-1,2,3,4,7,8,9,10-octahydro-6-H-pyridazino[1,2-a][1,2]diazepine-1-carboxamide] |

| SMILES | pIC50 |
| --- | --- |
| CCOC1OC(=O)C[C@@H]1NC(=O)CN1C(=O)[C@@H](NC(=O)c2cc(C)c(O)c(C)c2)CN(C(=O)CO)c2ccccc21 (mixture of isomers) [Compound 692b, (3S)-2-Oxo-3-(3,5-dimethyl-4-hydroxybenzoyl)amino-5-hydroxyacetyl-N-[(2RS,3S)-ethoxy-5-oxo-tetrahydrofuran-3-yl]-2,3,4,5-tetrahydro-1H-1,5-benzodiazepine-1-acetamide] | 5.74 |
